Results reported in patent US20080312300A1, “Processes for the Preparation of Stable Polymorphic Form I of Ritonavir” (priority 2005, published 2008).

Assay: Stability study on storage (polymorphic conversion followed by XRD)
Assay type: physicochemical
Description: A first aspect of the present invention provides stable polymorphic Form I of ritonavir having no tendency to convert to any other polymorphic form. […] The X-Ray powdered Diffraction (XRPD) pattern of stable Form I of ritonavir is provided in FIGS. 1a and 2a of the drawing.
(XRD pattern of the title compound stored at 25° C. after 3 months is depicted in FIG. 3).

| SMILES | conversion in the polymorphic form on storage (stored at 25° C. for 3 months, XRD pattern (FIG. 3)) | stability of polymorphic form upon storage (prepared as per prior art process, tendency to convert to other forms, especially Form II) |
| --- | --- | --- |
| CC(C)c1nc(CN(C)C(=O)N[C@H](C(=O)N[C@@H](Cc2ccccc2)C[C@H](O)[C@H](Cc2ccccc2)NC(=O)OCc2cncs2)C(C)C)cs1 (relative stereo) [Example 2, [5S-(5R*,8R*,10R*,11R*)]-10-Hydroxy-2-methyl-5-(1-methylethyl)-1-[2-(1-methylethyl)-4-thiazolyl]-3,6-dioxo-8,11-bis(phenylmethyl)-2,4,7,12-tetraazamidecan-13-oic acid, 5-thiazolylmethyl ester] | no conversion in the polymorphic form was observed |  |
| CC(C)c1nc(CN(C)C(=O)N[C@H](C(=O)N[C@@H](Cc2ccccc2)C[C@H](O)[C@H](Cc2ccccc2)NC(=O)OCc2cncs2)C(C)C)cs1 (single isomer, unassigned) [Form I of ritonavir, [5S-(5R*,8R*,10R*,11R*)]-10-Hydroxy-2-methyl-5-(1-methylethyl)-1-[2-(1-methylethyl)-4-thiazolyl]-3,6-dioxo-8,11-bis(phenylmethyl)-2,4,7,12-tetraazamidecan-13-oic acid, 5-thiazolylmethyl ester] |  | not stable |
